Tests used:
[1] = tested on: morphine-exposed mouse pups; experiment: Neonatal opioid withdrawal syndrome (NOWS): naloxone-precipitated somatic signs in morphine-exposed mouse pups; type: in vivo; conditions: D-CYSee 30 mg/kg s.c. given prior to naloxone 1.0 mg/kg
Description: FIG. 2 illustrates a schematic timeline of an assay of neonatal morphine exposure of female mice for determining neonatal opioid withdrawal syndrome (NOWS). Female mice are implanted with osmotic mini-pumps containing 20 mg/kg/day morphine sulfate and mated. Offspring are injected twice daily with 10 mg/kg morphine for 14 days.
FIG. 4 illustrates a graph showing D-CYSee modulates NOWS. […] D-CYSee (30 mg/kg s.c.) given prior to naloxone (1.0 mg/kg) reduces all somatic signs of withdrawal except for jumping behavior, which is enhanced.

[2] = tested on: morphine dependent rats; experiment: Naloxone-precipitated withdrawal responses in morphine dependent rats; type: in vivo, rat
Description: Rats received a depot subcutaneous injection of morphine (150 mg/kg) with or without continuous infusion of D-CYSee (20 μmol/kg/hour, IV) and one day later the rats received an intraperitoneal injection of naloxone HCl (1.5 mg/kg) to elicit withdrawal responses.

[3] = rats, D-CYSee 20 μmol/kg/hour IV, naloxone HCl 1.5 mg/kg i.p.

CCOC(=O)[C@H](N)CS [D-CYSee, D-cysteine ethyl ester]
body tremors [1]: reduces | jumps (jumping behavior) [1]: enhanced | paw tremors [1]: reduces | wall climbs [1]: reduces | withdrawal responses ([2]; morphine 150 mg/kg depot s.c., D-CYSee 20 μmol/kg/hour IV continuous infusion, naloxone HCl 1.5 mg/kg i.p. one day later): markedly diminishes | change in mean arterial blood pressure [2, 3]: attenuated | circling behavior [2, 3]: attenuated | episodes of apneas [2, 3]: attenuated | episodes of fore-paw licking [2, 3]: attenuated | episodes of sneezing [2, 3]: attenuated | jumping behavior [2, 3]: attenuated | rearing behavior [2, 3]: attenuated

Source: US20250009706A1, “COMPOSITIONS AND METHODS FOR TREATING OPIOID DEPENDENCE AND WITHDRAWAL” (CASE WESTERN RESERVE UNIVERSITY, priority 2021, published 2025)
